Data on three compounds can be found in patent publication US4185096A, “Novel derivatives of pepstatin, their preparation and compositions containing them” (Agence Nationale de Valorisation de la Recherche (ANVAR), priority 1977, dated 1980).

Molecules are shown by their SMILES. pKi: −log10 of the molar value. Non-standard residues stand in square brackets, D forms with d. Residues, ends and D or L forms follow the SMILES beside them. *: point of attachment. Sta = CC(C)C[C@H](N)[C@@H](O)CC(=O)O; Isovaleryl = CC(C)CC(=O)*

Test [1] deals with hog renin. Kind of test: in vitro inhibition of hog renin on synthetic N-acetylated tetradecapeptide substrate, fluorimetry, Dixon plot. In kind it is biochemical. As to conditions: 10 milli-Goldblatt units hog renin, pH 6, one hour, 37° C., Dixon representation; read-out: inhibition constant. The procedure:
10 milli-Goldblatt units of hog renin, from the same source as above, were incubated at pH 6 for one hour at 37° C. in the presence of a synthetic substrate constituted by a N-acetylated renin tetradecapeptide [GALEN et al. Biochem. Biophys. Acta, 523, 485-493 (1978)]. The tetrapeptide quantity produced per hour of incubation was measured by fluorimetry. Three different concentrations of N-acetylated tetradecapeptide were used, that is to say 2.3, 4.6 and 9.3 nmoles with increasing amounts of pepstatin or methyl ester of pepstatin-[…].25, 0.50 and 0.75 10^-6 mole/l).

Test [2] deals with hypertensive rats. Kind of test: blood pressure in rats with renal hypertension (aortic ligature between the renal arteries). In kind it is in vivo, rat. The following applies: for decrease of blood pressure: intravenous 350 nmoles, thirteen Saralasin-responder rats, pooled value (2 rats methyl ester, 11 rats arginine salt). The procedure:
The experimental model of renal hypertension developped in rats by ROJO-ORTEGA and GENEST [Can. J.Phys. Pharm. 46 883-885 (1968)] was used.
A complete ligature of the aorta between the renal arteries was performed in twenty male Sprague-Dawley rats, weighing 300 g. They were investigated between 5 and 10 days after surgery. The blood pressure was measured in the conscious unrestrained rats, through a carotid cannula inserted 24 hours before measurements were made.
The maximal decrease in blood pressure induced by an injection of "Saralasin" was compared [Sar 1, Ala-8 Angiotensin II] in the same animals, to the maximum fall in blood pressure induced by the soluble derivatives of pepstatin according to the invention.
In these thirteen rats, the average blood pressure decrease was 44.5±8.5 mmHg. The intravenous injection of 350 nmoles of pepstatinyl-Arginine-O-Methyl Ester (2 rats), or the Arginine salt of Pepstatinyl (11 rats) decreased blood pressure by 48.3±8.2 mmHg. The maximal fall in blood pressure was obtained 5 minutes after Saralasin, and 6 minutes after soluble pepstatin. Blood pressure returned to the control level 10 minutes after the injection of both inhibitors.

Consider `COC(=O)[C@H](CCCNC(=N)N)NC(=O)C[C@H](O)[C@H](CC(C)C)NC(=O)[C@H](C)NC(=O)C[C@H](O)[C@H](CC(C)C)NC(=O)[C@@H](NC(=O)[C@@H](NC(=O)CC(C)C)C(C)C)C(C)C` [methyl ester of pepstatin-arginine] (Isovaleryl-VV[Sta]A[Sta]R-OMe), for which, in test [1], the pKi was 6.50. The “decrease of blood pressure” value in test [2] amounted to 48.3±8.2 mmHg.
For the compound `CNCC(=O)N[C@@H](CCCN=C(N)N)C(=O)N[C@H](C(=O)N[C@@H](Cc1ccc(O)cc1)C(=O)N[C@H](C(=O)N[C@@H](Cc1cnc[nH]1)C(=O)N1CCC[C@H]1C(=O)N[C@@H](C)C(=O)O)C(C)C)C(C)C` [Saralasin, Sar 1, Ala-8 Angiotensin II], the “rats with a blood pressure fall of 10 mmHg and more” value in test [2] (among 20 hypertensive rats, intravenous 140 nmoles) amounted to 13 rats. Further, in test [2] (intravenous 140 nmoles), the “time of maximal fall in blood pressure after injection” value was 5 min and the “time of return of blood pressure to the control level after injection” value came out at 10 min. Also, the “average blood pressure decrease” value in test [2] (intravenous 140 nmoles, thirteen responder rats) stood at 44.5±8.5 mmHg.
For the compound `CC(C)CC(=O)N[C@H](C(=O)N[C@H](C(=O)N[C@@H](CC(C)C)[C@@H](O)CC(=O)N[C@@H](C)C(=O)N[C@@H](CC(C)C)[C@@H](O)CC(=O)N[C@@H](CCCNC(=N)N)C(=O)O)C(C)C)C(C)C` [pepstatin-arginine] (Isovaleryl-VV[Sta]A[Sta]R-OH), the “decrease of blood pressure” value in test [2] was found to be 48.3±8.2 mmHg.
